One experiment concerns the target T1, Kir2.3 (Homo sapiens, UniProt P48050).
T1 construct: expressed in transfected cells
T1 sequence (P48050 1-445): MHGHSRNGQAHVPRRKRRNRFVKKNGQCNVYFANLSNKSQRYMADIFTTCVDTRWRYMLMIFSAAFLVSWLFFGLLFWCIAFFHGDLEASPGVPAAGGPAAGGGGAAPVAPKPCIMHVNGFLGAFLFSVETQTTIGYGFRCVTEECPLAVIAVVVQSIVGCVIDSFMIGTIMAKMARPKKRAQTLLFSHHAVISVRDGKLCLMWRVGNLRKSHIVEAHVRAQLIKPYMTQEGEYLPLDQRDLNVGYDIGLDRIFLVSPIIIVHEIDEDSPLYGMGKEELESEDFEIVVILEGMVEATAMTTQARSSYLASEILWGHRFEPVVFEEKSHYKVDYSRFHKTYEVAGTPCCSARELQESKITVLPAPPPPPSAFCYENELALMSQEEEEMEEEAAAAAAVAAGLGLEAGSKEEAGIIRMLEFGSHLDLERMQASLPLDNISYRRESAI
The experiment in a line: Kir2.3 manual patch clamp (MPC). The experiment is classed as cell-based. On the procedure: Manual Patch Claim Assay Experimental Conditions
Whole-cell patch-clamp electrophysiology was used to record K ir2.1 currents from a stably transfected monoclonal T-Rex-HEK-293 cell line with a tetracycline-inducible promoter expressing human Kir2.1, as described previously1 cultured in a 5% CO2 incubator at 37°C. Kir2.1 expression was induced by overnight treatment with 1 µg/mL tetracycline. Cells were dissociated using 0.25% Trypsin-EDTA and seeded onto 12 mm circular coverslips (Electron Microscopy Sciences, PA, USA) for same-day whole-cell patch-clamp recordings. Kir2.1 currents were recorded at room temperature using an AxoPatch 200B amplifier with Clampex 10.7 software (Molecular Devices, USA). The voltage-clamp protocol consisted of a 1-s step to -120 mV from a -80 mV holding potential, followed by a 2-s ramp to +40 mV, repeated every 10 s. Data were sampled at 5 kHz and filtered at 1 kHz. Patch pipettes, pulled from 1.5 mm OD thin-walled capillaries (Warner Instruments, MA, USA) using a Sutter P-1000 puller (Sutter Instrument, CA, USA), had resistances of 2–3 MΩ when filled with intracellular solution containing (mM): 135 KCl, 10 HEPES, 1 EGTA, 2 MgCl2, 2 Na2ATP (pH 7.35, adjusted with KOH). The extracellular solution contained (mM): 135 NaCl, 5 KCl, 2 CaCl2, 1 MgCl2, 5 Glucose, 10 HEPES, 10 Sucrose (pH 7.35, adjusted with NaOH). After establishing stable baseline Kir2.1 currents, cells were perfused with compounds at concentrations of 0.03–30 µM until response saturation (within minutes).
Recordings concluded with a 2 mM Ba2+ solution to isolate Ba2+-sensitive currents, with compound responses expressed as fractions of this current. Current amplitudes at the -120 mV step were analyzed using Clampfit 11.2 (Molecular Devices). IC50 values were calculated by fitting the Hill equation to concentration-response curves (CRCs) using variable -slope nonlinear regression in GraphPad Prism 10.4 (GraphPad Software).
MPC experiments for Kir2.2 and Kir2.3 were conducted in an analogous fashion.1
(In general: In patch-clamp work, channel activity is measured electrically.)

Experiment [1] has as its target T2, Kir4.1 (Homo sapiens, UniProt P78508).
T2 sequence (P78508 1-379): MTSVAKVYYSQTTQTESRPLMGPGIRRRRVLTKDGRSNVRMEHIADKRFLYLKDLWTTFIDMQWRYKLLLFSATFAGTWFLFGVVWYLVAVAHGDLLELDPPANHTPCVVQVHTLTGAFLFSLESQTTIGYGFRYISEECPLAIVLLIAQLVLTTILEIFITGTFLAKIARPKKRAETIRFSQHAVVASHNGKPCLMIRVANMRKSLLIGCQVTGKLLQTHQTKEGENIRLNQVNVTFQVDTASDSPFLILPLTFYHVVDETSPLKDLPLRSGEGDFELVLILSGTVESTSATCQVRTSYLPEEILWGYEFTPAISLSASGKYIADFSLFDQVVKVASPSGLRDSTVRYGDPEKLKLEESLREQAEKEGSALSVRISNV
The experiment in a line: Kir4.1 thallium flux assay. Type of experiment: cell-based. To be noted: selective up to 10 μM.

A further experiment concerns Kir7.1. Set-up: method as in PMID 21615117. To be noted: cited from earlier work.
Experiment [2] deals with T2, Kir4.1. Set-up: method as in PMID 21615117. The settings on record: cited from earlier work.
Another experiment has as its target T3, human Kir2.1 (Homo sapiens, UniProt P63252).
T3 construct: expressed in transfected cells
T3 sequence (P63252 1-427): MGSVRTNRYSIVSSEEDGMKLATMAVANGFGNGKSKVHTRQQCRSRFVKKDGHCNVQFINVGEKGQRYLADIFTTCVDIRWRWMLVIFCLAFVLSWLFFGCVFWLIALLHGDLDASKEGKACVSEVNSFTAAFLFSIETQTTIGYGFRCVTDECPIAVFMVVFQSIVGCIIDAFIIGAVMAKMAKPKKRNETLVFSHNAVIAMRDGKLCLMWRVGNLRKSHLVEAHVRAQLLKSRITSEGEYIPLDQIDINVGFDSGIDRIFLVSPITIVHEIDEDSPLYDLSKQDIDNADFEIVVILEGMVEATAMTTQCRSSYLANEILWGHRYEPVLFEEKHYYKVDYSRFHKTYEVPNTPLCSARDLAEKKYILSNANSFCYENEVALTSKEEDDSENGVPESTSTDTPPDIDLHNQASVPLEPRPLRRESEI
Also noted: method as in PMID 21615117. The settings on record: pH 7.4; read-out: Kir2.1 manual patch clamp IC50 (original report); cited from earlier work.

The text below walks through data of PMC12434521, “Characterization of Next-Generation Inhibitors for the Inward-Rectifier Potassium Channel Kir2.1: Discovery of VU6080824” (ACS Medicinal Chemistry Letters, 2025).

Broadly, the pIC50 is −log10 of the IC50, conventionally taken in molar units.

pIC50: −log10 of the molar value. Read-outs that look alike come from different tables or passages of the source. Bounds are passed on as bounds.

`[2H]C([2H])([2H])Oc1ccc(CNCc2ccc(-c3cccc(OC)c3)cc2)cc1` [Compound 9]: the “Kir2.1/Kir2.3 Selectivity (MPC)” value on Kir2.3 amounted to 1.8 fold.
For the compound `COc1ccc(CNCc2ccc(-c3cccc(OC)c3)cc2)cc1` [Compound 5s, 1-(3′-Methoxy-[1,1’-biphenyl]-4-yl)-N-(4-methoxybenzyl)methanamine], the pIC50 is 6.07 against Kir2.3 and less than 5.00 against Kir4.1 [1]. Moreover, the “Kir2.1/Kir2.3 Selectivity (MPC)” value at Kir2.3 is on record as 2.5 fold; on Kir2.3 (listed as VU6080824), “approximately 2 fold”.
In the case of `[2H]C([2H])([2H])Oc1ccc(CNCc2ccc(-c3cccc(OC([2H])([2H])[2H])c3)cc2)cc1` [Compound 13], the “Kir2.1/Kir2.3 Selectivity (MPC)” value on Kir2.3 was 2.4 fold.
Turning to `COc1ccc(CNCc2cccc3ccccc23)cc1` [ML133, N-(4-methoxybenzyl)-1-(naphthalen-1-yl)methanamine, reference compound], the negative logarithm of the IC50 (pIC50) is less than 4.52 in the experiment on Kir7.1, less than 4.52 on Kir4.1 [2] and 5.74 on human Kir2.1.
As to `[2H]C([2H])([2H])Oc1cccc(-c2ccc(CNCc3ccc(OC)cc3)cc2)c1` [Compound 11], the “Kir2.1/Kir2.3 Selectivity (MPC)” value on Kir2.3 was determined as 1.3 fold.
